Data published in patent US10285865B2, “Drug-releasing device usable in mucosal body cavities” (Princeton Trade & Technololgy, Inc., priority 2014, dated 2019).
≈ marks a conversion by molar mass, not a printed value.

Columns and labels:
Format in all cases: cell-based
Haemophilus influenza = assay: Minimum Inhibitory Concentration (MIC) in water
Description: (§1) In an embodiment of the invention, the two forms of Ciprofloxacin can be combined in a single implant so as to achieve a desired the rate of delivery, the solubility limit of the drug in middle ear exudate or release of the drug. […]. The Minimum Inhibitory Concentration is the smallest concentration of a drug in water that will inhibit growth of a particular bacteria in solution.
(§2) The quantity Minimum Inhibitory Concentration (MIC) is the smallest concentration of a drug in water that will inhibit growth of a particular organism. It may be desirable for the administered concentration of a drug to be some multiple of this quantity. MIC for Ciprofloxacin is given here for several organisms typical of otitis media. For Pseudomonas aeruginosa, the MIC is 0.09 micrograms per milliliter. […] For Haemophilus influenza, the MIC is 0.06 micrograms per milliliter.

Pseudomonas aeruginosa = assay: Minimum Inhibitory Concentration (MIC) in water
Description: as §1, §2

Streptococcus pneumonia = assay: Minimum Inhibitory Concentration (MIC) in water; details: Streptococcus pneumoniae
Description: as §1, §2

[1] = test system: Staphylococcus aureus GFP; assay: microbe, parasite or virus in culture
Description: as §1, §2

[2] = test system: Staphylococcus aureus LUX; assay: microbe, parasite or virus in culture
Description: as §1, §2

O=C(O)c1cn(C2CC2)c2cc(N3CCNCC3)c(F)cc2c1=O [Ciprofloxacin]
MIC (Haemophilus influenza): 0.06 µg/mL (≈ 0.181 µM)
MIC (Pseudomonas aeruginosa): 0.09 µg/mL (≈ 0.272 µM)
MIC (Streptococcus pneumonia): 0.75 µg/mL (≈ 2.26 µM)
MIC [1]: 0.28 µg/mL (≈ 0.845 µM)
MIC [2]: 0.28 µg/mL (≈ 0.845 µM)
